# Test results from ChEMBL document CHEMBL2046359, “Novel tricyclic indeno[2,1-d]pyrimidines with dual antiangiogenic and cytotoxic activities as potent antitumor agents” (Bioorg Med Chem, 2012).
# Activity calls are given as the source filed them. The calls are words filed in the database; no cut-off is given here.
# Columns and labels:
# [1] = molecular target: T1, Bifunctional dihydrofolate reductase-thymidylate synthase (Toxoplasma gondii, UniProt Q07422); assay: Inhibition of Toxoplasma gondii DHFR
# T1 sequence (Q07422 whole entry): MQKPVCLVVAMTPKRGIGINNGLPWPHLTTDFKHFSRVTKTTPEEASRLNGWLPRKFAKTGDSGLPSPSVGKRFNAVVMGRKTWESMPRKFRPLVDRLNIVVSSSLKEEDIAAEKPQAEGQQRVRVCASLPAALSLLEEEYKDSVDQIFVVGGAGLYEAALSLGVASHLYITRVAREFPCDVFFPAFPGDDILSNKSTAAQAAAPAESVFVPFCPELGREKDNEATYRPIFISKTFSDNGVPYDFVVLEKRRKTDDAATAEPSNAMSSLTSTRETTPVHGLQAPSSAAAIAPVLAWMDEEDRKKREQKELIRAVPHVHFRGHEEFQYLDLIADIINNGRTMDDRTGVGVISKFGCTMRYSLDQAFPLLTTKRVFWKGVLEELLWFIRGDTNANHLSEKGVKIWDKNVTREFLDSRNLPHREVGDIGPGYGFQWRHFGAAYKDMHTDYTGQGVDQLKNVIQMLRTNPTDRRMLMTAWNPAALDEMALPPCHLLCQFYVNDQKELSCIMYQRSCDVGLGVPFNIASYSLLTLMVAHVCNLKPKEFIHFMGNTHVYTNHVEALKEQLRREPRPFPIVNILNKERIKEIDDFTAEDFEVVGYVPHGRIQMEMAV
# Thymidylate synthase = Thymidylate synthase (Homo sapiens, UniProt P04818); assay: Inhibition of human thymidylate synthase
# Thymidylate synthase, sequence (P04818 whole entry): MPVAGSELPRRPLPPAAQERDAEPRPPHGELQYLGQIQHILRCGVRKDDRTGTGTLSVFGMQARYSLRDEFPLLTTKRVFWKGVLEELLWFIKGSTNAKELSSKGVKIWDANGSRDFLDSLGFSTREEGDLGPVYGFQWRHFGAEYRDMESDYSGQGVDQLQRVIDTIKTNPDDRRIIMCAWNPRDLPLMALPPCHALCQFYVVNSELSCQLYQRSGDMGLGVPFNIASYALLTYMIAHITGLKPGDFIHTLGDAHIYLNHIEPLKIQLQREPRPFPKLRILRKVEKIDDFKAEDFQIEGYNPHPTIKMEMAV
# [2] = Inhibition of Escherichia coli thymidylate synthase
# [3] = molecular target: T1, Bifunctional dihydrofolate reductase-thymidylate synthase; assay: Inhibition of Toxoplasma gondii thymidylate synthase
# [4] = molecular target: Dihydroorotate dehydrogenase (quinone), mitochondrial (Homo sapiens, UniProt Q02127); assay: Inhibition of human DHODH
# Dihydroorotate dehydrogenase (quinone), mitochondrial, sequence (Q02127 whole entry): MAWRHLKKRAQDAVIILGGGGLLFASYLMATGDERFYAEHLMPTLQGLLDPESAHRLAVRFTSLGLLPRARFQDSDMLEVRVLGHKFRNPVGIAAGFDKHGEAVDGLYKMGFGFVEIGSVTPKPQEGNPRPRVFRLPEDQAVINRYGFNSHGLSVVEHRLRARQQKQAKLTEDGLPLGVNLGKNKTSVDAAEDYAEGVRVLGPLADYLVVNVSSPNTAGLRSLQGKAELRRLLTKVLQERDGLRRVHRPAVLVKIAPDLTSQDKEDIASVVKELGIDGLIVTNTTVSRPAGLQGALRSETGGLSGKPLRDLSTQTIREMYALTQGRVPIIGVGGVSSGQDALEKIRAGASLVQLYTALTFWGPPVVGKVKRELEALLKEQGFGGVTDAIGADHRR
# Mus musculus [5] = assay: Toxicity in NCr nu/nu mouse allografted with mouse B16F10 cells assessed as weight loss at 35 mg/kg, ip administered three times a week for 4 weeks; assay type: organism-based, B16-F10; parameters: dose 35 mg/kg, route intraperitoneal; details: in vivo, 672 h
# Mus musculus [6] = assay: Toxicity in NCr nu/nu mouse allografted with mouse B16F10 cells at 35 mg/kg, ip administered three times a week for 4 weeks; assay type: organism-based, B16-F10; parameters: dose 35 mg/kg, route intraperitoneal; details: in vivo, 672 h
# Dihydrofolate reductase = molecular target: T2, Dihydrofolate reductase (Homo sapiens, UniProt P00374)
# T2 sequence (P00374 whole entry): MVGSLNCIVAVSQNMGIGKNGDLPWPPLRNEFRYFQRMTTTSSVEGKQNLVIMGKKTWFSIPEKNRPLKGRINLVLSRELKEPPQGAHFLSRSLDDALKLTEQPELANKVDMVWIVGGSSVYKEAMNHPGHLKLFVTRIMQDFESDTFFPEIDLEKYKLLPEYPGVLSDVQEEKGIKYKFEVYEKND
# HL-60(TB) = assay: cells; details: Homo sapiens
# RPMI-8226 = assay: cells; details: Homo sapiens
# A549 = assay: cells; details: Homo sapiens
# EKVX = assay: cells; details: Homo sapiens
# HOP-62 = assay: cells; details: Homo sapiens
# HOP-92 = assay: cells; details: Homo sapiens
# NCI-H23 = assay: cells; details: Homo sapiens
# NCI-H322M = assay: cells; details: Homo sapiens
# NCI-H460 = assay: cells; details: Homo sapiens
# NCI-H522 = assay: cells; details: Homo sapiens
# HCT-116 = assay: cells; details: Homo sapiens
# HCT-15 = assay: cells; details: Homo sapiens
# SW-620 = assay: cells; details: Homo sapiens
# SF-295 = assay: cells; details: Homo sapiens
# SNB-75 = assay: cells; details: Homo sapiens
# U-251 = assay: cells; details: Homo sapiens
# DU-145 = assay: cells; details: Homo sapiens
# LOX IMVI = assay: cells; details: Homo sapiens
# Malme-3M = assay: cells; details: Homo sapiens
# M14 = assay: cells; details: Homo sapiens
# SK-MEL-2 = assay: cells; details: Homo sapiens
# SK-MEL-28 = assay: cells; details: Homo sapiens
# SK-MEL-5 = assay: cells; details: Homo sapiens
# UACC-257 = assay: cells; details: Homo sapiens
# UACC-62 = assay: cells; details: Homo sapiens
# IGROV-1 = assay: cells; details: Homo sapiens
# OVCAR-3 = assay: cells; details: Homo sapiens
# SK-OV-3 = assay: cells; details: Homo sapiens
# 786-0 = assay: cells; details: Homo sapiens
# ACHN = assay: cells; details: Homo sapiens
# CAKI-1 = assay: cells; details: Homo sapiens
# RXF 393 = assay: cells; details: Homo sapiens
# TK-10 = assay: cells; details: Homo sapiens
# UO-31 = assay: cells; details: Homo sapiens
# MCF7 = assay: cells; details: Homo sapiens
# MDA-MB-231 = assay: cells; details: Homo sapiens
# cells = details: Homo sapiens, Hs-578T
# MDA-MB-435 = assay: cells; details: Homo sapiens
# BT-549 = assay: cells; details: Homo sapiens
# B16-F10 [7] = assay: Antitumor activity against mouse B16F10 cells allografted in NCr nu/nu mouse assessed as decrease in tumor metastasis at 35 mg/kg, ip administered three times weekly for 2 weeks
# B16-F10 [8] = assay: Antitumor activity against mouse B16F10 cells allografted in NCr nu/nu mouse assessed as inhibition of tumor angiogenesis at 35 mg/kg, ip administered three times weekly for 2 weeks
smiles,measurement,setting,value
Nc1nc2c(c(Nc3ccc(Cl)cc3)n1)-c1ccccc1C2,IC50,[1],> 16 µM
same,IC50,Thymidylate synthase,> 14 µM
same,IC50,[2],> 14 µM
same,IC50,[3],> 14 µM
same,IC50,[4],> 200 µM
same,Activity,Mus musculus [5],Non-toxic
same,Activity,Mus musculus [6],Non-toxic
same,IC50,Dihydrofolate reductase,> 16 µM
same,GI50,HL-60(TB),150 nM
same,GI50,RPMI-8226,489 nM
same,GI50,A549,43.4 nM
same,GI50,EKVX,2710 nM
same,GI50,HOP-62,654 nM
same,GI50,HOP-92,18.1 µM
same,GI50,NCI-H23,565 nM
same,GI50,NCI-H322M,1350 nM
same,GI50,NCI-H460,19.3 nM
same,GI50,NCI-H522,622 nM
same,GI50,HCT-116,38.1 nM
same,GI50,HCT-15,434 nM
same,GI50,SW-620,63 nM
same,GI50,SF-295,547 nM
same,GI50,SNB-75,5.03 µM
same,GI50,U-251,184 nM
same,GI50,DU-145,212 nM
same,GI50,LOX IMVI,308 nM
same,GI50,Malme-3M,> 10 µM
same,GI50,M14,431 nM
same,GI50,SK-MEL-2,558 nM
same,GI50,SK-MEL-28,1510 nM
same,GI50,SK-MEL-5,513 nM
same,GI50,UACC-257,84.5 nM
same,GI50,UACC-62,641 nM
same,GI50,IGROV-1,287 nM
same,GI50,OVCAR-3,216 nM
same,GI50,SK-OV-3,2090 nM
same,GI50,786-0,514 nM
same,GI50,ACHN,3.42 µM
same,GI50,CAKI-1,1080 nM
same,GI50,RXF 393,2910 nM
same,GI50,TK-10,2150 nM
same,GI50,UO-31,790 nM
same,GI50,MCF7,73.4 nM
same,GI50,MDA-MB-231,641 nM
same,GI50,cells,2220 nM
same,GI50,MDA-MB-435,554 nM
same,GI50,BT-549,2830 nM
same,Activity,B16-F10 [7],inactive
same,Activity,B16-F10 [8],Active
